According to PubChem BioAssay (NCI):
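Exposure lasted 48 hours, with cells grown in 96-well plates and compounds tested at five concentrations. GI50: concentration for 50% inhibition of growth. Definition used: TGI = concentration required for complete inhibition of growth.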

Legend:
Assay in all cases: NCI-60 cell line screen, 48 h; in the data active = GI50 below about 0.43 µM; inactive = the rest
786-0 renal = tested on: 786-0 renal
A498 renal = tested on: A498 renal
A549 NSCLC = tested on: A549 NSCLC
ACHN renal = tested on: ACHN renal
BT-549 breast = tested on: BT-549 breast
COLO 205 colon = tested on: COLO 205 colon
DU-145 prostate = tested on: DU-145 prostate
EKVX NSCLC = tested on: EKVX NSCLC
HCC-2998 colon = tested on: HCC-2998 colon
HCT-116 colon = tested on: HCT-116 colon
HCT-15 colon = tested on: HCT-15 colon
HOP-92 NSCLC = tested on: HOP-92 NSCLC
HT29 colon = tested on: HT29 colon
IGROV1 ovarian = tested on: IGROV1 ovarian
K-562 leukemia = tested on: K-562 leukemia
KM12 colon = tested on: KM12 colon
M14 melanoma = tested on: M14 melanoma
MALME-3M melanoma = tested on: MALME-3M melanoma
MCF7 breast = tested on: MCF7 breast
MDA-MB-231 breast = tested on: MDA-MB-231 breast
MDA-MB-435 = tested on: MDA-MB-435
MOLT-4 leukemia = tested on: MOLT-4 leukemia
NCI-H226 lung = tested on: NCI-H226 lung
NCI-H23 lung = tested on: NCI-H23 lung
NCI-H460 lung = tested on: NCI-H460 lung
NCI-H522 lung = tested on: NCI-H522 lung
NCI/ADR-RES ovarian = tested on: NCI/ADR-RES ovarian
OVCAR-3 ovarian = tested on: OVCAR-3 ovarian
OVCAR-4 ovarian = tested on: OVCAR-4 ovarian
OVCAR-5 ovarian = tested on: OVCAR-5 ovarian
PC-3 prostate = tested on: PC-3 prostate
RPMI-8226 leukemia = tested on: RPMI-8226 leukemia
RXF 393 renal = tested on: RXF 393 renal
SF-268 CNS = tested on: SF-268 CNS
SF-295 CNS = tested on: SF-295 CNS
SK-MEL-2 melanoma = tested on: SK-MEL-2 melanoma
SK-MEL-28 melanoma = tested on: SK-MEL-28 melanoma
SK-MEL-5 melanoma = tested on: SK-MEL-5 melanoma
SK-OV-3 ovarian = tested on: SK-OV-3 ovarian
SN12C renal = tested on: SN12C renal
SNB-19 CNS = tested on: SNB-19 CNS
SNB-75 CNS = tested on: SNB-75 CNS
SW-620 colon = tested on: SW-620 colon
TK-10 renal = tested on: TK-10 renal
U251 CNS = tested on: U251 CNS
UACC-257 melanoma = tested on: UACC-257 melanoma
UACC-62 melanoma = tested on: UACC-62 melanoma
UO-31 renal = tested on: UO-31 renal
CCRF-CEM leukemia = tested on: CCRF-CEM leukemia
HL-60(TB) leukemia = tested on: HL-60(TB) leukemia
HOP-62 NSCLC = tested on: HOP-62 NSCLC
OVCAR-8 ovarian = tested on: OVCAR-8 ovarian
SF-539 CNS = tested on: SF-539 CNS
CAKI-1 renal = tested on: CAKI-1 renal
SR leukemia = tested on: SR leukemia
T-47D breast = tested on: T-47D breast

O=[N+]([O-])c1ccc(OCc2nnc(CCCCCCCCc3nnc(COc4ccc([N+](=O)[O-])cc4)o3)o2)cc1
83.3 µM: TGI (RXF 393 renal)
> 100 µM: TGI (786-0 renal) | TGI (A498 renal) | TGI (A549 NSCLC) | TGI (ACHN renal) | TGI (BT-549 breast) | TGI (COLO 205 colon) | TGI (DU-145 prostate) | TGI (EKVX NSCLC) | TGI (HCC-2998 colon) | TGI (HCT-116 colon) | TGI (HCT-15 colon) | TGI (HOP-92 NSCLC) | TGI (HT29 colon) | TGI (IGROV1 ovarian) | TGI (K-562 leukemia) | TGI (KM12 colon) | TGI (M14 melanoma) | TGI (MALME-3M melanoma) | TGI (MCF7 breast) | TGI (MDA-MB-231 breast) | TGI (MDA-MB-435) | TGI (MOLT-4 leukemia) | TGI (NCI-H226 lung) | TGI (NCI-H23 lung) | TGI (NCI-H460 lung) | TGI (NCI-H522 lung) | TGI (NCI/ADR-RES ovarian) | TGI (OVCAR-3 ovarian) | TGI (OVCAR-4 ovarian) | TGI (OVCAR-5 ovarian) | TGI (PC-3 prostate) | TGI (RPMI-8226 leukemia) | TGI (SF-268 CNS) | TGI (SF-295 CNS) | TGI (SK-MEL-2 melanoma) | TGI (SK-MEL-28 melanoma) | TGI (SK-MEL-5 melanoma) | TGI (SK-OV-3 ovarian) | TGI (SN12C renal) | TGI (SNB-19 CNS) | TGI (SNB-75 CNS) | TGI (SW-620 colon) | TGI (TK-10 renal) | TGI (U251 CNS) | TGI (UACC-257 melanoma) | TGI (UACC-62 melanoma) | TGI (UO-31 renal)

COc1ccc2[nH]c3c(C)c4ccnc(NCCCN(C)CCCNc5ccc([N+](=O)[O-])c6[nH]c7ccccc7c(=O)c56)c4c(C)c3c2c1
0.0678 µM: TGI (NCI-H460 lung)
1.26 µM: TGI (OVCAR-5 ovarian)
1.2 µM: TGI (OVCAR-3 ovarian)
1.21 µM: TGI (PC-3 prostate)
4.12 µM: TGI (CCRF-CEM leukemia)
0.0954 µM: TGI (MCF7 breast)
1.81 µM: TGI (MDA-MB-231 breast)
1.11 µM: TGI (OVCAR-8 ovarian)
4.41 µM: TGI (K-562 leukemia)
0.988 µM: TGI (M14 melanoma)
1.27 µM: TGI (DU-145 prostate)
2.21 µM: TGI (UO-31 renal)
0.107 µM: TGI (HT29 colon)
0.822 µM: TGI (NCI-H522 lung)
0.568 µM: TGI (HCC-2998 colon)
1.06 µM: TGI (HOP-62 NSCLC)
0.964 µM: TGI (EKVX NSCLC)
1.42 µM: TGI (SNB-19 CNS)
1.43 µM: TGI (KM12 colon)
0.989 µM: TGI (MOLT-4 leukemia)
0.726 µM: TGI (SF-539 CNS)
0.755 µM: TGI (IGROV1 ovarian)
1.46 µM: TGI (SK-MEL-2 melanoma)
0.68 µM: TGI (HCT-15 colon)
0.648 µM: TGI (ACHN renal)
50 µM: TGI (HL-60(TB) leukemia) | TGI (RPMI-8226 leukemia)
0.0783 µM: TGI (A549 NSCLC)

CCCN1CCN(c2ccc3nc(-c4ccc5nc(-c6ccc(C(F)(F)F)cc6)[nH]c5c4)[nH]c3c2)CC1
3.47 µM: TGI (MDA-MB-435)
3.24 µM: TGI (COLO 205 colon)
2.77 µM: TGI (MALME-3M melanoma)
2.88 µM: TGI (M14 melanoma)
3.32 µM: TGI (KM12 colon)
2.96 µM: TGI (ACHN renal)
3.48 µM: TGI (SK-MEL-5 melanoma)
3.58 µM: TGI (SK-MEL-2 melanoma)
3.76 µM: TGI (HL-60(TB) leukemia)
3.15 µM: TGI (HOP-62 NSCLC)
3.57 µM: TGI (UACC-257 melanoma)
3.07 µM: TGI (OVCAR-3 ovarian)
3.52 µM: TGI (MDA-MB-231 breast)
3.46 µM: TGI (HCC-2998 colon)
3.36 µM: TGI (DU-145 prostate) | TGI (OVCAR-5 ovarian)
3.1 µM: TGI (SF-295 CNS)
> 100 µM: TGI (NCI/ADR-RES ovarian)
inactive: GI50 (786-0 renal) 1.78 µM | GI50 (A498 renal) 1.87 µM | GI50 (ACHN renal) 1.6 µM | GI50 (BT-549 breast) 1.75 µM | GI50 (CAKI-1 renal) 1.76 µM | GI50 (COLO 205 colon) 1.52 µM | GI50 (DU-145 prostate) 1.9 µM | GI50 (EKVX NSCLC) 1.87 µM | GI50 (HCC-2998 colon) 1.89 µM | GI50 (HCT-116 colon) 1.38 µM | GI50 (HL-60(TB) leukemia) 2 µM | GI50 (HOP-62 NSCLC) 1.56 µM | GI50 (KM12 colon) 1.78 µM | GI50 (M14 melanoma) 1.48 µM | GI50 (MALME-3M melanoma) 1.35 µM | GI50 (MDA-MB-231 breast) 1.98 µM | GI50 (MDA-MB-435) 1.86 µM | GI50 (MOLT-4 leukemia) 1.87 µM | GI50 (NCI-H23 lung) 1.71 µM | GI50 (NCI/ADR-RES ovarian) 6.46 µM | GI50 (OVCAR-3 ovarian) 1.65 µM | GI50 (OVCAR-4 ovarian) 1.75 µM | GI50 (OVCAR-5 ovarian) 1.93 µM | GI50 (SF-268 CNS) 1.88 µM | GI50 (SF-295 CNS) 1.66 µM | GI50 (SF-539 CNS) 1.77 µM | GI50 (SK-MEL-2 melanoma) 1.92 µM | GI50 (SK-MEL-28 melanoma) 1.78 µM | GI50 (SK-MEL-5 melanoma) 1.77 µM | GI50 (SNB-75 CNS) 1.5 µM | GI50 (UACC-257 melanoma) 1.85 µM | GI50 (UACC-62 melanoma) 1.66 µM
3.27 µM: TGI (786-0 renal)
3.44 µM: TGI (OVCAR-4 ovarian)
3.23 µM: TGI (UACC-62 melanoma)
3.62 µM: TGI (MOLT-4 leukemia)
3.33 µM: TGI (EKVX NSCLC)
2.93 µM: TGI (SNB-75 CNS)
3.56 µM: TGI (SF-268 CNS)
2.71 µM: TGI (HCT-116 colon)
3.2 µM: TGI (BT-549 breast) | TGI (CAKI-1 renal) | TGI (SF-539 CNS)
3.25 µM: TGI (SK-MEL-28 melanoma)
3.77 µM: TGI (A498 renal)
3.22 µM: TGI (NCI-H23 lung)

N#Cc1c(-c2ccc(Cl)cc2)cc(-c2ccc(Nc3ccnc4cc(Cl)ccc34)cc2)nc1N
> 100 µM: TGI (786-0 renal) | TGI (A498 renal) | TGI (A549 NSCLC) | TGI (ACHN renal) | TGI (BT-549 breast) | TGI (CAKI-1 renal) | TGI (COLO 205 colon) | TGI (DU-145 prostate) | TGI (EKVX NSCLC) | TGI (HCC-2998 colon) | TGI (HCT-116 colon) | TGI (HCT-15 colon) | TGI (HL-60(TB) leukemia) | TGI (HOP-62 NSCLC) | TGI (HOP-92 NSCLC) | TGI (IGROV1 ovarian) | TGI (K-562 leukemia) | TGI (KM12 colon) | TGI (M14 melanoma) | TGI (MALME-3M melanoma) | TGI (MDA-MB-231 breast) | TGI (MDA-MB-435) | TGI (NCI-H226 lung) | TGI (NCI-H23 lung) | TGI (NCI-H460 lung) | TGI (NCI-H522 lung) | TGI (NCI/ADR-RES ovarian) | TGI (OVCAR-3 ovarian) | TGI (OVCAR-4 ovarian) | TGI (OVCAR-5 ovarian) | TGI (OVCAR-8 ovarian) | TGI (PC-3 prostate) | TGI (RPMI-8226 leukemia) | TGI (RXF 393 renal) | TGI (SF-268 CNS) | TGI (SF-295 CNS) | TGI (SF-539 CNS) | TGI (SK-MEL-2 melanoma) | TGI (SK-MEL-28 melanoma) | TGI (SK-OV-3 ovarian) | TGI (SNB-19 CNS) | TGI (SNB-75 CNS) | TGI (SR leukemia) | TGI (SW-620 colon) | TGI (T-47D breast) | TGI (TK-10 renal) | TGI (U251 CNS) | TGI (UACC-62 melanoma) | TGI (UO-31 renal)
